This experiment deals with Aldo-keto reductase family 1 member B1 (Homo sapiens, UniProt P15121). Nature of the experiment: Inhibition of aldose reductase (unknown origin).

Turning to `O=C(O)CN1C(=O)S/C(=C\c2cccc(Oc3ccccc3)c2)C1=O`, the IC50 (usually the concentration that inhibits the measured activity by half) was 10.7 µM.
The figure for `COC(=O)CN1C(=O)S/C(=C/c2ccc(O)cc2)C1=O` is 39.1 µM; for `O=C(O)CN1C(=O)S/C(=C/c2ccc([N+](=O)[O-])cc2)C1=O` it is 0.82 µM.
As for `O=C(O)CN1C(=O)S/C(=C/c2cccc3ccccc23)C1=O`, the figure is 6.18 µM.
The figure for `O=C(O)CN1C(=O)S/C(=C/c2cccc([N+](=O)[O-])c2)C1=O` is 0.13 µM.
`COC(=O)CN1C(=O)S/C(=C/c2cccc(Oc3ccccc3)c2)C1=O` had an IC50 of 0.26 µM. This IC50 is about 2-fold higher than that of the compound before.
As for `O=C(O)CN1C(=O)S/C(=C\c2ccc(Oc3ccccc3)cc2)C1=O`, the figure is 0.17 µM.
The figure for `O=C(O)CN1C(=O)S/C(=C/c2cccc(O)c2)C1=O` is 4.17 µM; for `O=C1NC(=O)/C(=C/c2cccc(Oc3ccccc3)c2)S1` it is 0.28 µM.
The figure for `COC(=O)CN1C(=O)S/C(=C/c2cccc(N)c2)C1=O` is 1.32 µM; for `Nc1cccc(/C=C2/SC(=O)NC2=O)c1` it is 6.14 µM.
The compound `O=C1NC(=O)/C(=C/c2ccc(O)cc2)S1` gave an IC50 of 20.2 µM.
As for `O=C1NC(=O)/C(=C\c2cccc(O)c2)S1`, the figure is 0.15 µM.
The compound `O=C(O)CN1C(=O)S/C(=C/c2ccc(O)cc2)C1=O` showed an IC50 of 0.49 µM.
As for `O=C(O)CN1C(=O)S/C(=C/c2ccc(-c3ccccc3)cc2)C1=O`, the figure is 0.661 µM; as for `O=C(O)CN1C(=O)S/C(=C\c2ccc(OCc3ccccc3)cc2)C1=O`, 10.7 µM; as for `O=C1NC(=O)/C(=C/c2cccc3ccccc23)S1`, 8.95 µM.
The figure for `O=C(O)/C=C/CN1C(=O)S/C(=C/c2ccc(O)cc2)C1=O` is 1.19 µM.

The values are drawn from ChEMBL document CHEMBL3045790, “QSAR study of 5-arylidene-2,4-thiazolidinediones as aldose reductase inhibitors” (Med Chem Res, 2008).
